Data taken from patent publication US8933232B2, “1,3,4-oxadiazole and 1,3,4-thiadiazole beta-lactamase inhibitors” (priority 2012, dated 2015).
Where a name gives a salt, the structure may show the parent alone.

Test system: bacterial strains that express KPC β-lactamases
Assay: Synergy MIC / standard BLI potentiation MIC assay against strains expressing KPC β-lactamases
Type: cell-based
Conditions: in the presence of a β-lactam; comparator Avibactam
Description: The experimental protocol was performed according to Clinical and Laboratory Standards Institute (CLSI) guidelines with modifications as described below (CLSI guidelines can be derived from the CLSI document M07-A9 published in January 2012: “Methods for Dilution Antimicrobial Susceptibility Tests for Bacteria That Grow Aerobically; Approved Standard-Ninth Edition”).
To prepare for MIC testing, frozen glycerol stocks of clinical isolates (Klebsiella pneumoniae, Eschericia coli, Enterobacter spp, Citrobacter spp, or Pseudomonas aeruginosa) were used to streak for isolated colonies on rich, non-selective, tryptic soy agar containing 5% sheep's blood (TSAB). Frozen glycerol stocks of laboratory engineered, isogenic E. coli strains, which contain cloned β-lactamase expressing plasmids were used to streak for isolated colonies on rich, selective LB agar supplemented with 25 μg/mL tetracycline to maintain the plasmid. All strains were incubated at 37° C. for 18-24 hrs.
On the day of testing, primary cultures were started by scraping off 5-10 colonies from the TSAB plates containing clinical strains or the tetracycline supplemented LB plates containing engineered strains. The clinical strain material was suspended in ˜5 mL of cation adjusted Mueller Hinton Broth (CAMHB) in 14 mL culture tubes. The engineered strain material was suspended in CAMHB (supplemented with 25 μg/mL tetracycline) in 14 mL culture tubes. All strains were incubated at 37° C. with aeration (200 rpm) for ˜2 hrs until the optical density at 600 nm (OD600) was >0.1.
The two compound components of the assay were each diluted in CAMHB and added to the 96-well broth microdilution assay plates. 50 μL of the β-lactam was added to each well of the assay plate in 2-fold dilutions with final concentrations ranging from 128 to 0.13 μg/mL. 25 μL, of the BLI compound was added to all wells in the broth microdilution plates at a final concentration of 4 μg/mL. Inoculum cultures were prepared by standardizing the primary cultures to OD600=0.1 and then adding 20 μL of the adjusted primary culture per 1 mL CAMHB for clinical strains or CAMHB (supplemented with tetracycline at 100 μg/mL) for engineered strains, so that the final inoculum density was ˜10^5 colony forming units per milliliter. Diluted inoculum cultures were used to inoculate 25 μl, per well in 96-well broth microdilution assay plates. The final volume of each well was 100 μL and contained a β-lactam at different concentrations, a BLIcompound at 4 μg/mL concentration, the bacterial culture at an OD600 of approximately 0.001 and when necessary tetracycline at 25 μg/mL.
Plates were incubated for 18-20 hours at 37° C. with aeration (200 rpm). Following incubation, growth was confirmed visually placing plates over a viewing apparatus (stand with a mirror underneath) and then OD600 was measured using a SpectraMax 340PC384 plate reader (Molecular Devices, Sunnyvale, Calif.). Growth was defined as turbidity that could be detected with the naked eye or achieving minimum OD600 of 0.1. MIC values were defined as the lowest concentration producing no visible turbidity.
The synergy MIC (sMIC) assay determines the concentration of the BLI required to potentiate the activity of a fixed concentration of a β-lactam antibiotic against β-lactamase producing bacterial strains. The experimental protocol was performed according to Clinical and Laboratory Standards Institute (CLSI) guidelines with modifications as described below (CLSI guidelines can be derived from the CLSI document M07-A9 published in January 2012: “Methods for Dilution Antimicrobial Susceptibility Tests for Bacteria That Grow Aerobically; Approved Standard-Ninth Edition”). […]

Structure (SMILES)	more active than Avibactam for at least one bacterial strain that expresses KPC β-lactamase and/or better spectrum of activity against KPC strains
O=C1N2C[C@@H](CC[C@H]2c2nnc(CCNC3CCNCC3)o2)N1OS(=O)(=O)O [Compound 770, (2S,5R)-7-oxo-2-(5-(2-(piperidin-4-ylamino)ethyl)-1,3,4-oxadiazol-2-yl)-1,6-diazabicyclo[3.2.1]octan-6-yl hydrogen sulfate]	more active than Avibactam
N[C@H]1CN[C@@H](c2nnc([C@@H]3CC[C@@H]4CN3C(=O)N4OS(=O)(=O)O)o2)C1 [Compound 761, (2S,5R)-2-(5-((2R,4R)-4-aminopyrrolidin-2-yl)-1,3,4-oxadiazol-2-yl)-7-oxo-1,6-diazabicyclo[3.2.1]octan-6-yl hydrogen sulfate]	more active than Avibactam
NC1CC(NCc2nnc([C@@H]3CC[C@@H]4CN3C(=O)N4OS(=O)(=O)O)o2)C1 (stereo partly drawn) [Compound 755, (2S,5R)-2-(5-(((3-aminocyclobutyl)amino)methyl)-1,3,4-oxadiazol-2-yl)-7-oxo-1,6-diazabicyclo[3.2.1]octan-6-yl hydrogen sulfate]	more active than Avibactam
N[C@H]1C[C@@H](c2nnc([C@@H]3CC[C@@H]4CN3C(=O)N4OS(=O)(=O)O)s2)C1 [Compound 795, (2S,5R)-2-(5-((1s,3R)-3-aminocyclobutyl)-1,3,4-thiadiazol-2-yl)-7-oxo-1,6-diazabicyclo[3.2.1]octan-6-yl hydrogen sulfate]	more active than Avibactam
N=C1NCC(c2nnc([C@@H]3CC[C@@H]4CN3C(=O)N4OS(=O)(=O)O)o2)N1 (stereo partly drawn) [Compound 767, (2S,5R)-2-(5-(2-iminoimidazolidin-4-yl)-1,3,4-oxadiazol-2-yl)-7-oxo-1,6-diazabicyclo[3.2.1]octan-6-yl hydrogen sulfate]	more active than Avibactam
O=C1N2C[C@@H](CC[C@H]2c2nnc(CN[C@H]3CCNC3)o2)N1OS(=O)(=O)O [Compound 765, (2S,5R)-7-oxo-2-(5-(((S)-pyrrolidin-3-ylamino)methyl)-1,3,4-oxadiazol-2-yl)-1,6-diazabicyclo[3.2.1]octan-6-yl hydrogen sulfate]	more active than Avibactam
O=C1N2C[C@@H](CC[C@H]2c2nnc(COC3CNC3)o2)N1OS(=O)(=O)O [Compound 744, (2S,5R)-2-(5-((azetidin-3-yloxy)methyl)-1,3,4-oxadiazol-2-yl)-7-oxo-1,6-diazabicyclo[3.2.1]octan-6-yl hydrogen sulfate]	more active than Avibactam
O=C1N2C[C@@H](CC[C@H]2c2nnc(C3CNC3)o2)N1OS(=O)(=O)O [Compound 708, (2S,5R)-2-(5-(azetidin-3-yl)-1,3,4-oxadiazol-2-yl)-7-oxo-1,6-diazabicyclo[3.2.1]octan-6-yl hydrogen sulfate]	more active than Avibactam
N[C@H]1CC[C@@H](c2nnc([C@@H]3CC[C@@H]4CN3C(=O)N4OS(=O)(=O)O)o2)C1 [Compound 768, (2S,5R)-2-(5-((1R,3S)-3-aminocyclopentyl)-1,3,4-oxadiazol-2-yl)-7-oxo-1,6-diazabicyclo[3.2.1]octan-6-yl hydrogen sulfate]	more active than Avibactam
O=C1N2C[C@@H](CC[C@H]2c2nnc([C@H]3CNCCN3)o2)N1OS(=O)(=O)O [Compound 779, (2S,5R)-7-oxo-2-(5-((R)-piperazin-2-yl)-1,3,4-oxadiazol-2-yl)-1,6-diazabicyclo[3.2.1]octan-6-yl hydrogen sulfate]	more active than Avibactam
N=C(N)N1CC(c2nnc([C@@H]3CC[C@@H]4CN3C(=O)N4OS(=O)(=O)O)o2)C1 [Compound 709, (2S,5R)-2-(5-(1-carbamimidoylazetidin-3-yl)-1,3,4-oxadiazol-2-yl)-7-oxo-1,6-diazabicyclo[3.2.1]octan-6-yl hydrogen sulfate]	more active than Avibactam
N[C@@H]1CN[C@@H](c2nnc([C@@H]3CC[C@@H]4CN3C(=O)N4OS(=O)(=O)O)o2)C1 [Compound 763, (2S,5R)-2-(5-((2R,4S)-4-aminopyrrolidin-2-yl)-1,3,4-oxadiazol-2-yl)-7-oxo-1,6-diazabicyclo[3.2.1]octan-6-yl hydrogen sulfate]	more active than Avibactam
O=C1N2C[C@@H](CC[C@H]2c2nnc([C@H]3CCNC3)o2)N1OS(=O)(=O)O [Compound 758, (2S,5R)-7-oxo-2-(5-((S)-pyrrolidin-3-yl)-1,3,4-oxadiazol-2-yl)-1,6-diazabicyclo[3.2.1]octan-6-yl hydrogen sulfate]	more active than Avibactam
NC(=O)c1nnc([C@@H]2CC[C@@H]3CN2C(=O)N3OS(=O)(=O)O)o1 [Compound 706, (2S,5R)-2-(5-carbamoyl-1,3,4-oxadiazol-2-yl)-7-oxo-1,6-diaza-bicyclo[3.2.1]octan-6-yl hydrogen sulfate]	more active than Avibactam
N=C(N)Nc1nnc([C@@H]2CC[C@@H]3CN2C(=O)N3OS(=O)(=O)O)o1 [Compound 738, (2S,5R)-2-(5-guanidino-1,3,4-oxadiazol-2-yl)-7-oxo-1,6-diazabicyclo[3.2.1]octan-6-yl hydrogen sulfate]	more active than Avibactam
O=C1N2C[C@@H](CC[C@H]2c2nnc(CC3CCNC3)o2)N1OS(=O)(=O)O (stereo partly drawn) [Compound 764, (2S,5R)-7-oxo-2-(5-(pyrrolidin-3-ylmethyl)-1,3,4-oxadiazol-2-yl)-1,6-diazabicyclo[3.2.1]octan-6-yl hydrogen sulfate]	more active than Avibactam
O=C1N2C[C@@H](CC[C@H]2c2nnc(C3CCNC3)o2)N1OS(=O)(=O)O (stereo partly drawn) [Compound 710, (2S,5R)-7-oxo-2-(5-(pyrrolidin-3-yl)-1,3,4-oxadiazol-2-yl)-1,6-diazabicyclo[3.2.1]octan-6-yl hydrogen sulfate]	more active than Avibactam
N=C(N)NC[C@@H](O)c1nnc([C@@H]2CC[C@@H]3CN2C(=O)N3OS(=O)(=O)O)o1 [Compound 731, (2S,5R)-2-(5-((R)-2-guanidino-1-hydroxyethyl)-1,3,4-oxadiazol-2-yl)-7-oxo-1,6-diazabicyclo[3.2.1]octan-6-yl hydrogen sulfate]	more active than Avibactam
N=C(N)NC1CC(Cc2nnc([C@@H]3CC[C@@H]4CN3C(=O)N4OS(=O)(=O)O)o2)C1 (stereo partly drawn) [Compound 752, (2S,5R)-2-(5-(β-guanidinocyclobutyl)methyl)-1,3,4-oxadiazol-2-yl)-7-oxo-1,6-diazabicyclo[3.2.1]octan-6-yl hydrogen sulfate]	more active than Avibactam
O=C1N2C[C@@H](CC[C@H]2c2nnc(CCCCNC3CCNCC3)o2)N1OS(=O)(=O)O [Compound 772, (2S,5R)-7-oxo-2-(5-(4-(piperidin-4-ylamino)butyl)-1,3,4-oxadiazol-2-yl)-1,6-diazabicyclo[3.2.1]octan-6-yl hydrogen sulfate]	more active than Avibactam
